Laboratory results from patent publication US20240374769A1, “LIGHT ACTIVATED CLEANING COMPOSITION” (The Procter & Gamble Company, priority 2023, published 2024).
Values belong to the molecule of their own block, whether it stands above or below them.

Key:
[1] = Riboflavin 5-phosphate sodium salt degradation under 450 nm LED with or without sodium ascorbate; format: physicochemical
Protocol: Stock solutions of Riboflavin5-phosphate sodium salt were created by adding 2.2 mg of granulated Riboflavin 5-phosphate sodium salt Riboflavin 5-phosphate sodium salt into a 10 mL volumetric flask with a 95% H2O: 5% ethanol to give a concentration of 0.46 mM. Adding 1 mL of the stock solution to another 10 mL was used to create a 46 μM solution. Adding 0.5 mL to a 25 mL volumetric flask gives a concentration of 9 μM.
Stock solutions of sodium ascorbate were created by adding 9.1 mg of granulated sodium ascorbate into a 10 mL volumetric flask with a 95% H2O: 5% ethanol to give a concentration of 4.6 mM. Adding 0.1 mL of the stock solution to another 10 mL was used to create a 46 μM solution. Adding 0.05 mL to a 25 mL volumetric flask gives a concentration of −9 μM, which could be multiplied to give the number of equivalents needed for each study.
For some riboflavin decomposition experiments a home-built 450 nm LED was used to irradiate samples. The quartz cuvette was placed 11.5 cm away from the light source and the measured intensity was 1750 mW/m^2.
A JASCO V-750 spectrophotometer (from JASCO Easton, Maryland, USA) was used for recording UV-Vis spectra. Quartz cuvettes were used for sample irradiations as they have an optical window that allows for spectra to be collected as low as 200 nm. IgorPro8 software was used for plotting and processing the data.
Fractional RF Absorbance is the absorbance signal at 446 nm measured at an irradiation time divided by the absorbance signal at 446 nm at t=0. The concentration of RF was held constant at 46 μM, denoted by “1” and the concentration of sodium ascorbate (SA) was varied in multiples of 46 μM, denoted by “1”, “5”, “10”, “50” (i.e. 46 μM, 230 μM, 460 μM, and 2.3 mM).
To test the depletion of Riboflavin 5-phosphate sodium salt (RF) in presence of sodium ascorbate, experiments were run in triplicate using a 450 nm LED with a measured power of 1750 mW/m2. […]

[2] = Thioxanthone depletion in solution under 365 nm irradiation (UV-Vis); format: physicochemical
Protocol: Solutions of photosensitizer (9-10 μM, 1 eq), […] (9-50 μM, 1-5 eq) and singlet oxygen quenching molecules (1-1000 equivalents) were prepared in a 10 mL volumetric flask either. Solvents for these studies were either 95:5 DI H2O:Ethanol or pure ethanol. A starting UV-Vis spectrum was obtained as a baseline. Solutions were irradiated in a quartz cuvette using appropriate LED's at a measured distance to ensure reproducible results. Spectra were collected at intervals of 1 min, 5 min, 15 minutes, 30 minutes, and every 15 minutes until the […] was depleted. In cases where nitrosoaniline absorption signals were quenched faster, the spectra were collected as smaller intervals typically been 1-5 minutes.
Stock solutions of thioxanthone were created by adding […] of granulated thioxanthone into a 10 mL volumetric flask with pure ethanol to give a concentration of 2.3 mM. Adding 0.1 mL of the stock solution to another 10 mL was used to create a 23 μM solution. Adding 0.1 mL to a 25 mL volumetric flask gives a concentration of −9 μM.
Stock solutions of imidazole were created by adding […] of granulated imidazole into a 10 mL volumetric flask with a 95% H2O: 5% ethanol or pure ethanol to give a concentration of […]. […]
Some thioxanthone decomposition experiments were performed by using a home-built 365 nm LED. […] The light intensity was measured to be roughly 2000 mW/m^2 from each LED. […]

[3] = in methanol solutions; cited from earlier work

- loss of absorbance signal at 446 nm ([1]; RF 46 μM by itself, 450 nm LED 1750 mW/m2, after 30 minutes of irradiation): roughly 50%
- loss of absorbance signal at 446 nm ([1]; RF 46 μM with 5× sodium ascorbate (230 μM), 450 nm LED, in about 10 minutes): roughly 50%
- loss of absorbance signal at 446 nm ([1]; RF 46 μM with 10× sodium ascorbate (460 μM), 450 nm LED, in about 10 minutes): roughly 50%
Compound: Cc1cc2nc3c(=O)[nH]c(=O)nc-3n(C[C@H](O)[C@H](O)[C@H](O)COP(=O)([O-])O)c2cc1C.[Na+] [Riboflavin 5-phosphate sodium salt]

Compound: c1c[nH]cn1 [imidazole]
- effect of added imidazole on rate of thioxanthone degradation ([2]; thioxanthone 23 μM, imidazole 23 μM to 230 μM, 365 nm): increases the rate of thioxanthone degradation

- depletion of thioxanthone ([2]; thioxanthone 23 μM in ethanol, 365 nm irradiation): complete after two hours of irradiation
Compound: O=c1c2ccccc2sc2ccccc12 [thioxanthone, reference compound]
- triplet quantum yield [3]: 0.56
